Measured values taken from patent US11419878B2, “Medicine obtained by combining FXR agonist and ARB” (Intercept Pharmaceuticals, Inc., priority 2016, dated 2022).

Columns and labels:
α1(I) procollagen = assay: HHSC fibrosis marker gene expression, RT-PCR, α1(I) procollagen; assay type: cell-based, human; conditions: AT-II 10^-6M + LPS 10^-5M; ARB 10^-6M, obeticholic acid 5×10^-6M; 24 hours; monotherapy vs G2AL, combination vs monotherapy groups
Protocol: The various combined effects of obeticholic acid and three types of ARBs (losartan, valsartan, and candesartan) were confirmed in an in vitro cell system experiment. Specifically, using human hepatic stellate cells (HHSC), which are implicated in the main mechanism of progression of hepatic fibrosis in NASH, the effects of administration of obeticholic acid in combination with the three ARBs of inhibiting HHSC proliferation capacity and the expression of fibrosis markers were evaluated according to the following method. Human hepatic stellate cells (HHSC) (also referred to as human hepatic star cells) Obeticholic acid (obtained from Intercept Pharmaceuticals, Inc. via Sumitomo Dainippon Pharma Co., Ltd.) was used as an FXR agonist, and commercial losartan (potassium salt of losartan; referred to in this working example simply as “losartan”) and valsartan and candesartan ([…] of candesartan; referred to in this working example simply as “candesartan”) were used as ARBs. Angiotensin II (AT-II) and/or lipopolysaccharide (LPS) were used (both AT1-mediated AT-II signalling and TLR4-mediated LPS signaling are known to play major roles in HSC activation and the progression of hepatic fibrosis). With respect to the effect of inhibiting fibrosis marker gene expression, collagen production capacity and TGF-β production capacity were evaluated by the RT-PCR method. 1) HHSCs were inoculated onto a 6-well plate in the amount of 300,000 cells/2 ml and allowed to proliferate in 1% FBS DMEM medium for 24 hours. 2) After 24 hours, the cells were divided into the following 7 groups and transferred to culture medium after adding the following drugs and/or reagents. Losartan was used as an ARB. Negative control group (G1): No drugs added (control) […] AT-II (10^-6M) Positive control group L […]): LPS (10^-5M) Positive control group AL ([…]): (10^-6M)+LPS (10^-5M) Obeticholic acid administration (G3): AT-II (10^-6M)+LPS (10^-5M)+obeticholic acid (5×10^-6M) ARB administration (G4): AT-II (10^-6M)+LPS (10^-5M)+ARB (10^-6M) Obeticholic acid+ARB combined administration (G5): AT-II (10^-6M)+LPS (10^-5M)+obeticholic acid (5×10^-6M)+ARB (10^-6M) […] Evaluations were conducted in the five groups G1, G2AL, G3, G4, and G5.

[1] = test system: C57Bl/6J mice fed a CDAHFD; assay: Murine NASH model (CDAHFD-fed mice), serum ALT activity; assay type: in vivo, mouse; conditions: obeticholic acid 10 mg/kg/day and/or losartan 30 mg/kg/day oral, 3 weeks from 6 weeks of diet
From the text: According to the NASH/NAFLD Practice Guideline of 2015 (Japan Society of Hepatology, NASH/NAFLD Practice Guideline 2015. Tokyo: Bunkodo; 2015.), the important factors in NASH diagnostic screening are an abdominal ultrasound diagnosis of fatty liver and abnormal ALT (alanine aminotransferase) values. The diagnosis of NASH is confirmed by liver biopsy, with control of obesity/hypertension/lipid abnormalities being one of the basic criteria, and continuing high values for transaminases (aminotransferases) are also significant. […] Aliment Pharmacol Ther. 2013 Jul. 38 (2): 134-43). Based on the above findings, as ALT is considered an important prognostic factor in the progression of NASH, treatment to improve ALT levels is expected to alleviate the pathology of NASH. For this reason, evaluation was conducted using the animal model of reduction of ALT below, and the effects of monotherapy and combined administration of an FXR agonist (obeticholic acid) and an ARB (losartan) were studied.
The same method was used as in working example 7.
Male C57Bl/6J mice (n=50) […]
In order to evaluate serum alanine aminotransferase (ALT) activity, blood samples were taken from mice that had completed the above-mentioned testing, and the serum was separated. Using a pharmaceutical product for in vitro diagnosis, ALT activity in the serum samples was enzymatically measured.

TGF-β1 = assay: Rat NASH model, RT-PCR of hepatic TGF-β1 mRNA expression; assay type: in vivo; conditions: OLETF rats, PS 8 weeks, obeticholic acid 30 mg/kg/day and/or losartan 30 mg/kg/day oral
Protocol: Using the liver sections from the rats in the various groups obtained in working example 1, an immunohistochemical study by immunohistological staining with α-smooth muscle actin (α-SMA) antibody and a quantitative analysis of transforming growth factor-β1 TGF-β1) and collagen (α1(I) procollagen) mRNA expression were conducted. α-SMA is known to be an indicator (marker) of activation of hepatic stellate cells (HSCs) (also known as hepatic star cells). Moreover, activation of hepatic stellate cells (HSC), overproduction of TGF-β1 (a fibrosis-promoting cytokine) accompanying said activation, and overproduction of extracellular matrix components such as collagen are thought to play a central role in the mechanism of progressive hepatic fibrosis in NASH. For this reason, mRNA expression of TGF-β1 and collagen (α1(I) procollagen) can be a fibrosis indicator (marker).
A comparative study was conducted by analyzing TGF-β1 and collagen (α1(I) procollagen) mRNA expression in the livers of the rates of the various groups of working example 1 by means of the quantitative real-time polymerase chain reaction (RT-PCR). Quantitation of the mRNA expression levels by RT-PCR was conducted on a StepOne Plus™ system (manufactured by Applied Biosystems®) using the fluorescent dye SYBR® Green

| Compound | α1(I)-procollagen mRNA expression induced by AT-II and LPS in HHSC (α1(I) procollagen) | improvement in serum ALT activity versus the positive control group [1] | TGF-β1 mRNA expression in liver compared to the positive control group (TGF-β1) |
| --- | --- | --- | --- |
| CCCCc1nc(Cl)c(CO)n1Cc1ccc(-c2ccccc2-c2nn[nH]n2)cc1 [losartan] | statistically significant inhibition | only an improving trend | moderate decreasing tendency |
| CC[C@H]1[C@@H](O)[C@@H]2[C@H](CC[C@]3(C)[C@@H]([C@H](C)CCC(=O)O)CC[C@@H]23)[C@@]2(C)CC[C@@H](O)C[C@@H]12 [obeticholic acid, 3α,7α-dihydroxy-6α-ethyl-5β-cholan-24-oic acid] | statistically significant inhibition | only an improving trend | moderate decreasing tendency |
